Patent publication US20230398125A1, “TREATING HEPATITIS” (Albireo AB, priority 2022, published 2023)
Where two headings read alike, the source gives them in different places. Marks after values point to notes of the source that are not given here.

Columns and labels:
[1] = Pharmacokinetic phase: plasma exposure after oral dosing in non-infected PXB mice; type: in vivo; details: for concentration at 0.5 h / concentration at 1 h / concentration at 2 h / concentration at 4 h / concentration at 6 h / concentration at 24 h: PXB, mouse, plasma, po
Protocol: Thirty microliters (30 μL) of blood were collected from all animals under isoflurane anesthesia via the retro-orbital plexus/sinus using sodium heparin-coated calibrated pipettes according to the collection schedule shown in Table 7. The individual blood samples of the animals were transferred to labeled microtubes and stored under chilled conditions until centrifugation at 3500×g, 5° C. for 10 minutes to obtain plasma. Individual plasma samples were transferred into separately labeled microtubes and snap frozen in liquid nitrogen. The plasma exposure of Compound 1 from the pharmacokinetic phase was measured via LC/MS- MS. The lower limit of quantitation was 1 ng/mL.

HBV genotype C = test: Serum HBV DNA in HBV-infected PXB mice; type: in vivo, hepatitis B virus; details: for serum HBV DNA levels: HBV-infected PXB mice, group mean, assay limit 4×10^4 copies/mL serum
Protocol: Target volume of blood was collected from all surviving animals under isoflurane anesthesia via the retro-orbital plexus/sinus using Intramedic™ Polyethylene Tubing at each time point. Two microliters (2 μL) from the collected blood were used for human albumin measurements. The remaining blood was centrifuged to separate serum to be used for analyzing the indicated biomarkers. Blood samples were collected according to Table 8.
The individual blood samples of the animals were left at room temperature for at least 5 minutes to coagulate and then centrifuged at 13200×g, 4° C. for 3 minutes to obtain serum. The serum was divided into separate labeled microtubes and stored at −80° C. until analysis.
Real-time PCR detection was used to measure the serum HBV DNA concentration using the KUBIX HBV qPCR Kit (KUBIX Inc.) and CFX96 Touch™ Real-Time PCR Detection System (Bio-Rad Laboratories, Inc., Hercules, Calif., USA). Ten microliters (10 μL) of the HBV 2×PCR Solution were added into 10 μL of the heated sample. The initial activation was conducted at 95° C. for 2 minutes. Subsequent PCR amplification consisted of 45 cycles of denaturation at 95° C. for 5 seconds and annealing and extension at 54° C. for 30 seconds per cycle in a CFX96 Touch™ Real-Time PCR Detection System. The average serum HBV DNA level was calculated from the values of the two separate wells.
The lowest quantification limit of this assay was 4×10^4 copies/mL serum.

[2] = 10 mg/kg, non-infected PXB mice, 10 mg/kg p.o., animal 101, read-out: Plasma conc.
[3] = 10 mg/kg, non-infected PXB mice, 10 mg/kg p.o., animal 102, read-out: Plasma conc.
[4] = 10 mg/kg, non-infected PXB mice, 10 mg/kg p.o., animal 103, read-out: Plasma conc.
[5] = 10 mg/kg, non-infected PXB mice, 10 mg/kg p.o., mean of 3 animals, read-out: Plasma conc. Mean ± SD
[6] = 10 mg/kg, non-infected PXB mice, 10 mg/kg p.o., animal 201, read-out: Plasma conc.
[7] = 10 mg/kg, non-infected PXB mice, 10 mg/kg p.o., animal 202, read-out: Plasma conc.
[8] = 10 mg/kg, non-infected PXB mice, 10 mg/kg p.o., animal 203, read-out: Plasma conc.
[9] = 30 mg/kg, non-infected PXB mice, 30 mg/kg p.o., animal 301, read-out: Plasma conc.
[10] = 30 mg/kg, non-infected PXB mice, 30 mg/kg p.o., animal 302, read-out: Plasma conc.
[11] = 30 mg/kg, non-infected PXB mice, 30 mg/kg p.o., animal 303, read-out: Plasma conc.
[12] = 30 mg/kg, non-infected PXB mice, 30 mg/kg p.o., mean of 3 animals, read-out: Plasma conc. Mean ± SD
[13] = 30 mg/kg, non-infected PXB mice, 30 mg/kg p.o., animal 401, read-out: Plasma conc.
[14] = 30 mg/kg, non-infected PXB mice, 30 mg/kg p.o., animal 402, read-out: Plasma conc.
[15] = 30 mg/kg, non-infected PXB mice, 30 mg/kg p.o., animal 403, read-out: Plasma conc.

## CCCCC1CN(c2ccccc2)c2cc(SC)c(O/C=C(\F)C(=O)O)cc2S(=O)(=O)N1C (stereo not drawn) [Compound 1, (Z)-3-((3-butyl-2-methyl-7-(methylthio)-1,1-dioxido-5-phenyl-2,3,4,5-tetrahydro-1,2,5-benzothiadiazepin-8-yl)oxy)-2-fluoroacrylic acid]
[1]; 10 and 30 mg/kg p.o.
  plasma exposure versus dose: increased with increased dose
[1]; 10 and 30 mg/kg p.o., non-infected PXB mice
  detection in plasma: detected in plasma throughout the 24-hour time period
[1]; [2]
  concentration at 0.5 h: 1290 ng/mL
  concentration at 2 h: 194 ng/mL
  concentration at 6 h: 46.2 ng/mL
[1]; [3]
  concentration at 0.5 h: 2650 ng/mL
  concentration at 2 h: 322 ng/mL
  concentration at 6 h: 63.5 ng/mL
[1]; [4]
  concentration at 0.5 h: 727 ng/mL
  concentration at 2 h: 177 ng/mL
  concentration at 6 h: 130 ng/mL
[1]; [5]
  concentration at 0.5 h: 1560 ± 990 ng/mL
  concentration at 1 h: 1020 ± 690 ng/mL
  concentration at 2 h: 231 ± 79 ng/mL
  concentration at 4 h: 253 ± 290 ng/mL
  concentration at 6 h: 80 ± 44 ng/mL
  concentration at 24 h: 18 ± 14 ng/mL
[1]; [6]
  concentration at 1 h: 492 ng/mL
  concentration at 4 h: 111 ng/mL
  concentration at 24 h: 25.3 ng/mL
[1]; [7]
  concentration at 1 h: 763 ng/mL
  concentration at 4 h: 61.4 ng/mL
  concentration at 24 h: 27.2 ng/mL
[1]; [8]
  concentration at 1 h: 1810 ng/mL
  concentration at 4 h: 587 ng/mL
  concentration at 24 h: 1.4 ng/mL
[1]; [9]
  concentration at 0.5 h: 1880 ng/mL
  concentration at 2 h: 2420 ng/mL
  concentration at 6 h: 554 ng/mL
[1]; [10]
  concentration at 0.5 h: 2910 ng/mL
  concentration at 2 h: 590 ng/mL
  concentration at 6 h: 99.8 ng/mL
[1]; [11]
  concentration at 0.5 h: 6810 ng/mL
  concentration at 2 h: 3040 ng/mL
  concentration at 6 h: 1490 ng/mL
[1]; [12]
  concentration at 0.5 h: 3870 ± 2600 ng/mL
  concentration at 1 h: 3780 ± 2000 ng/mL
  concentration at 2 h: 2020 ± 1300 ng/mL
  concentration at 4 h: 811 ± 510 ng/mL
  concentration at 6 h: 715 ± 700 ng/mL
  concentration at 24 h: 202 ± 47 ng/mL
[1]; [13]
  concentration at 1 h: 4560 ng/mL
  concentration at 4 h: 1120 ng/mL
  concentration at 24 h: 230 ng/mL
[1]; [14]
  concentration at 1 h: 5320 ng/mL
  concentration at 4 h: 1090 ng/mL
  concentration at 24 h: 229 ng/mL
[1]; [15]
  concentration at 1 h: 1470 ng/mL
  concentration at 4 h: 217 ng/mL
  concentration at 24 h: 148 ng/mL
HBV genotype C; 30 mg/kg, Day 7
  serum HBV DNA compared to controls: lower
HBV genotype C; 10 mg/kg p.o. once daily Day 0-14, Day 0 (pre-dose)
  serum HBV DNA levels: 4.0 × 10^4
HBV genotype C; 10 mg/kg p.o. once daily Day 0-14, Day 7
  serum HBV DNA levels: 1.4 × 10^5
HBV genotype C; 10 mg/kg p.o. once daily Day 0-14, Day 14
  serum HBV DNA levels: 8.5 × 10^5
HBV genotype C; 10 mg/kg p.o. once daily Day 0-14, Day 21
  serum HBV DNA levels: 1.3 × 10^6
HBV genotype C; 10 mg/kg p.o. once daily Day 0-14, Day 28
  serum HBV DNA levels: 8.5 × 10^6
HBV genotype C; 10 mg/kg p.o. once daily Day 0-14, Day 35
  serum HBV DNA levels: 2.7 × 10^7*
HBV genotype C; 10 mg/kg p.o. once daily Day 0-14, Day 42
  serum HBV DNA levels: 1.2 × 10^8*
HBV genotype C; 30 mg/kg p.o. once daily Day 0-14, Day 0 (pre-dose)
  serum HBV DNA levels: 4.0 × 10^4
HBV genotype C; 30 mg/kg p.o. once daily Day 0-14, Day 7
  serum HBV DNA levels: 6.1 × 10^4
HBV genotype C; 30 mg/kg p.o. once daily Day 0-14, Day 14
  serum HBV DNA levels: 1.9 × 10^5
HBV genotype C; 30 mg/kg p.o. once daily Day 0-14, Day 21
  serum HBV DNA levels: 3.1 × 10^5
HBV genotype C; 30 mg/kg p.o. once daily Day 0-14, Day 28
  serum HBV DNA levels: 2.7 × 10^6
HBV genotype C; 30 mg/kg p.o. once daily Day 0-14, Day 35
  serum HBV DNA levels: 1.1 × 10^7
HBV genotype C; 30 mg/kg p.o. once daily Day 0-14, Day 42
  serum HBV DNA levels: 5.4 × 10^7
HBV genotype C; oral dosing before HBV infection
  effect against HBV genotype C infection in PXB-mice: prophylactic effects
